From ChEMBL document CHEMBL1671652, “Efficacy of piperacillin combined with the Penem beta-lactamase inhibitor BLI-489 in murine models of systemic infection” (2009)
≈ marks a conversion by molar mass, not a printed value.

Experiments:
Enterobacter cloacae [1] = experiment: Antimicrobial activity against AmpC beta-lactamase producing Enterobacter cloacae GC 4142 infected in CD-1 mouse treated 30 and 150 min postinfection in presence of 8:1 ratio of compound to beta-lactamase inhibitor BLI-489; assay type: functional
Enterobacter cloacae [2] = experiment: Antimicrobial activity against AmpC beta-lactamase producing Enterobacter cloacae GC 4142 infected in CD-1 mouse treated 30 and 150 min postinfection in presence of 10:1 ratio of compound to beta-lactamase inhibitor BLI-489; assay type: functional
Klebsiella pneumoniae [3] = experiment: Antimicrobial activity against SHV-11beta-lactamase producing Klebsiella pneumoniae GAR 7693 infected in CD-1 mouse treated 30 and 150 mins postinfection in presence of beta-lactamase inhibitor Tazobactam; assay type: functional
Escherichia coli [4] = experiment: Antimicrobial activity against TEM-10 beta-lactamase producing Escherichia coli GC 2022 infected in CD-1 mouse treated 30 mins postinfection in presence of 8:1 ratio of compound to beta-lactamase inhibitor BLI-489; assay type: functional; settings: GC 2022, 0.5 h
Klebsiella pneumoniae [5] = experiment: Antimicrobial activity against SHV-1and SHV-5 beta-lactamase producing Klebsiella pneumoniae GAR 7978 infected in CD-1 mouse treated 30 and 150 mins postinfection in presence of 8:1 ratio of compound to beta-lactamase inhibitor BLI-489; assay type: functional
Klebsiella pneumoniae [6] = experiment: Antimicrobial activity against SHV-1and SHV-5 beta-lactamase producing Klebsiella pneumoniae GAR 7978 infected in CD-1 mouse treated 30 and 150 mins postinfection in presence of beta-lactamase inhibitor Tazobactam; assay type: functional
Enterobacter cloacae [7] = experiment: Antimicrobial activity against AmpC beta-lactamase producing Enterobacter cloacae GC 4142 infected in CD-1 mouse treated 30 and 150 mins postinfection in presence of beta-lactamase inhibitor Tazobactam; assay type: functional
Escherichia coli [8] = experiment: Antimicrobial activity against ACT-1 beta-lactamase producing Escherichia coli GC 2814 infected in CD-1 mouse treated 30 and 150 mins postinfection; assay type: functional
Escherichia coli [9] = experiment: Antimicrobial activity against ACT-1 beta-lactamase producing Escherichia coli GC 2814 infected in CD-1 mouse treated 30 and 150 mins postinfection in presence of beta-lactamase inhibitor Tazobactam; assay type: functional
Staphylococcus aureus [10] = experiment: Antimicrobial activity against penicillinase producing Staphylococcus aureus GC 6468 infected in CD-1 mouse treated 30 and 150 mins postinfection in presence of 8:1 ratio of compound to beta-lactamase inhibitor BLI-489; assay type: functional
Staphylococcus aureus [11] = experiment: Antimicrobial activity against penicillinase producing Staphylococcus aureus GC 6468 infected in CD-1 mouse treated 30 and 150 mins postinfection in presence of beta-lactamase inhibitor Tazobactam; assay type: functional
Escherichia coli [12] = experiment: Antimicrobial activity against TEM-1 beta-lactamase producing Escherichia coli GC 6265 by broth microdilution method; assay type: functional
Klebsiella pneumoniae [13] = experiment: Antimicrobial activity against SHV-1and SHV-5 beta-lactamase producing Klebsiella pneumoniae GAR 7978 by broth microdilution method; assay type: functional
Salmonella typhimurium [14] = experiment: Antimicrobial activity against CTX-M-5 beta-lactamase producing Salmonella enterica serovar Typhimurium GC 4195 by broth microdilution method; assay type: functional, Salmonella enterica subsp. enterica serovar Typhimurium
Escherichia coli [15] = experiment: Antimicrobial activity against ACT-1 beta-lactamase producing Escherichia coli GC 2814 by broth microdilution method; assay type: functional
Escherichia coli [16] = experiment: Antimicrobial activity against OXA-1 beta-lactamase producing Escherichia coli GAR 5946 by broth microdilution method; assay type: functional
Staphylococcus aureus [17] = experiment: Antimicrobial activity against penicillinase producing Staphylococcus aureus GC 6468 by broth microdilution method; assay type: functional
Escherichia coli [18] = experiment: Antimicrobial activity against TEM-1 beta-lactamase producing Escherichia coli GC 6265 by broth microdilution method in presence of 8:1 ratio of compound to beta-lactamase inhibitor BLI-489; assay type: functional
Klebsiella pneumoniae [19] = experiment: Antimicrobial activity against SHV-11 beta-lactamase producing Klebsiella pneumoniae GAR 7693 by broth microdilution method in presence of 8:1 ratio of compound to beta-lactamase inhibitor BLI-489; assay type: functional
Klebsiella pneumoniae [20] = experiment: Antimicrobial activity against SHV-1and SHV-5 beta-lactamase producing Klebsiella pneumoniae GAR 7978 by broth microdilution method in presence of 8:1 ratio of compound to beta-lactamase inhibitor BLI-489; assay type: functional
Enterobacter cloacae [21] = experiment: Antimicrobial activity against AmpC beta-lactamase producing Enterobacter cloacae GC 4142 by broth microdilution method in presence of 8:1 ratio of compound to beta-lactamase inhibitor BLI-489; assay type: functional
Pseudomonas aeruginosa = experiment: Antimicrobial activity against AmpC beta-lactamase producing Pseudomonas aeruginosa GC 1764 by broth microdilution method in presence of 8:1 ratio of compound to beta-lactamase inhibitor BLI-489; assay type: functional
Escherichia coli [22] = experiment: Antimicrobial activity against ACT-1 beta-lactamase producing Escherichia coli GC 2814 by broth microdilution method in presence of 8:1 ratio of compound to beta-lactamase inhibitor BLI-489; assay type: functional
Escherichia coli [23] = experiment: Antimicrobial activity against TEM-1 beta-lactamase producing Escherichia coli GC 6265 by broth microdilution method in presence of beta-lactamase inhibitor Tazobactam; assay type: functional
Klebsiella pneumoniae [24] = experiment: Antimicrobial activity against SHV-11 beta-lactamase producing Klebsiella pneumoniae GAR 7693 by broth microdilution method in presence of beta-lactamase inhibitor Tazobactam; assay type: functional
Salmonella typhimurium [25] = experiment: Antimicrobial activity against CTX-M-5 beta-lactamase producing Salmonella enterica serovar Typhimurium GC 4195 by broth microdilution method in presence of beta-lactamase inhibitor Tazobactam; assay type: functional, Salmonella enterica subsp. enterica serovar Typhimurium
Enterobacter cloacae [26] = experiment: Antimicrobial activity against AmpC beta-lactamase producing Enterobacter cloacae GC 4142 by broth microdilution method in presence of beta-lactamase inhibitor Tazobactam; assay type: functional
Escherichia coli [27] = experiment: Antimicrobial activity against ACT-1 beta-lactamase producing Escherichia coli GC 2814 by broth microdilution method in presence of beta-lactamase inhibitor Tazobactam; assay type: functional
Staphylococcus aureus [28] = experiment: Antimicrobial activity against penicillinase producing Staphylococcus aureus GC 6468 by broth microdilution method in presence of beta-lactamase inhibitor Tazobactam; assay type: functional
Escherichia coli [29] = experiment: Antimicrobial activity against TEM-1 beta-lactamase producing Escherichia coli GC 6265 infected in CD-1 mouse treated 30 mins postinfection; assay type: functional; settings: GC 6265, 0.5 h
Escherichia coli [30] = experiment: Antimicrobial activity against TEM-1 beta-lactamase producing Escherichia coli GC 6265 infected in CD-1 mouse treated 30 mins postinfection in presence of 4:1 ratio of compound to beta-lactamase inhibitor BLI-489; assay type: functional; settings: GC 6265, 0.5 h
Escherichia coli [31] = experiment: Antimicrobial activity against TEM-1 beta-lactamase producing Escherichia coli GC 6265 infected in CD-1 mouse treated 30 mins postinfection in presence of 6:1 ratio of compound to beta-lactamase inhibitor BLI-489; assay type: functional; settings: GC 6265, 0.5 h
Escherichia coli [32] = experiment: Antimicrobial activity against TEM-1 beta-lactamase producing Escherichia coli GC 6265 infected in CD-1 mouse treated 30 mins postinfection in presence of 8:1 ratio of compound to beta-lactamase inhibitor BLI-489; assay type: functional; settings: GC 6265, 0.5 h
Escherichia coli [33] = experiment: Antimicrobial activity against TEM-1 beta-lactamase producing Escherichia coli GC 6265 infected in CD-1 mouse treated 30 mins postinfection in presence of 12:1 ratio of compound to beta-lactamase inhibitor BLI-489; assay type: functional; settings: GC 6265, 0.5 h
Enterobacter cloacae [34] = experiment: Antimicrobial activity against AmpC beta-lactamase producing Enterobacter cloacae GC 4142 infected in CD-1 mouse treated 30 and 150 min postinfection; assay type: functional
Enterobacter cloacae [35] = experiment: Antimicrobial activity against AmpC beta-lactamase producing Enterobacter cloacae GC 4142 infected in CD-1 mouse treated 30 and 150 min postinfection in presence of 2:1 ratio of compound to beta-lactamase inhibitor BLI-489; assay type: functional

## CCN1CCN(C(=O)N[C@@H](C(=O)N[C@@H]2C(=O)N3[C@@H]2SC(C)(C)[C@@H]3C(=O)O)c2ccccc2)C(=O)C1=O [PIPERACILLIN]
Enterobacter cloacae [1]
  ED50: 32 mg/kg
Enterobacter cloacae [2]
  ED50: 47 mg/kg
Klebsiella pneumoniae [3]
  ED50: 24 mg/kg
Escherichia coli [4]
  ED50: 40 mg/kg
Klebsiella pneumoniae [5]
  ED50: 28 mg/kg
Klebsiella pneumoniae [6]
  ED50: 58 mg/kg
Enterobacter cloacae [7]
  ED50: 71 mg/kg
Escherichia coli [8]
  ED50: 103 mg/kg
Escherichia coli [9]
  ED50: 45 mg/kg
Staphylococcus aureus [10]
  ED50: 12 mg/kg
Staphylococcus aureus [11]
  ED50: 16 mg/kg
Escherichia coli [12]
  MIC: > 64 mg/L
Klebsiella pneumoniae [13]
  MIC: > 64 mg/L
Salmonella typhimurium [14]
  MIC: 8 mg/L (≈ 15.5 µM)
Escherichia coli [15]
  MIC: 2 mg/L (≈ 3.86 µM)
Escherichia coli [16]
  MIC: 2 mg/L (≈ 3.86 µM)
Staphylococcus aureus [17]
  MIC: > 64 mg/L
Escherichia coli [18]
  MIC: 4 mg/L
Klebsiella pneumoniae [19]
  MIC: > 64 mg/L
Klebsiella pneumoniae [20]
  MIC: 8 mg/L
Enterobacter cloacae [21]
  MIC: > 64 mg/L
Pseudomonas aeruginosa
  MIC: 4 mg/L
Escherichia coli [22]
  MIC: > 64 mg/L
Escherichia coli [23]
  MIC: 128 mg/L
Klebsiella pneumoniae [24]
  MIC: > 64 mg/L
Salmonella typhimurium [25]
  MIC: > 64 mg/L
Enterobacter cloacae [26]
  MIC: 4 mg/L
Escherichia coli [27]
  MIC: > 64 mg/L
Staphylococcus aureus [28]
  MIC: 1 mg/L
Escherichia coli [29]
  ED50: 176 mg/kg
Escherichia coli [30]
  ED50: 12 mg/kg
Escherichia coli [31]
  ED50: 12 mg/kg
Escherichia coli [32]
  ED50: 12 mg/kg
Escherichia coli [33]
  ED50: 11 mg/kg
Enterobacter cloacae [34]
  ED50: 282 mg/kg
Enterobacter cloacae [35]
  ED50: 31 mg/kg
